Experimental data from US9624170B2, “4-(piperrazin-1-yl)-pyrrolidin-2-one compounds as monoacylglycerol lipase (MAGL) inhibitors” (TAKEDA PHARMACEUTICAL COMPANY LIMITED, priority 2013, dated 2017).
Structures can show the parent of a compound that is named as a salt.

Target: T1, human MAGL (His-hMAGL) (Homo sapiens, UniProt Q99685)
T1 construct: made in house; host or cells: Escherichia coli BL21(DE3)
T1 sequence (Q99685 1-303): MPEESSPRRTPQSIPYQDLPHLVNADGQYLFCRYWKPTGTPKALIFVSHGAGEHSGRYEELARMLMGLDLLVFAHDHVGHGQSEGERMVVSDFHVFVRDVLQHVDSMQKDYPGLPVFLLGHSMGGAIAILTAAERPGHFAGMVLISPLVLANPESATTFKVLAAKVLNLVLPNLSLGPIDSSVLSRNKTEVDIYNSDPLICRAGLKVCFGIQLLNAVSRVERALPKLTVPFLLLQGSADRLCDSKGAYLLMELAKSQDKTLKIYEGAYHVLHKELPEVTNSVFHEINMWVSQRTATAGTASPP
Assay: Measurement of MAGL inhibitory activity by mass spectrometry
Assay type: biochemical
Conditions: MAGL inhibitory rate, test compound 10 μM, His-hMAGL, substrate 2-arachidonylglycerol, RapidFire-mass spectrometry
In short: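 His-tagged human MAGL was reacted with 150 μM 2-arachidonylglycerol substrate (stock, added by 5 μL) for 10 min at room temperature, then stopped with formic acid. Arachidonic acid product was quantified by RapidFire–triple-quadrupole MS in negative SRM mode, corrected by arachidonic acid-d8, and converted to percent inhibition.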

| Structure (SMILES) | inhibition at 10 µM |
| --- | --- |
| CC1C(N2CCN(C(=O)c3nccs3)CC2)CC(=O)N1c1ccc(Oc2ccccc2)cc1 (centres unmarked) [Example 228, 5-Methyl-1-(4-phenoxyphenyl)-4-(4-(1,3-thiazol-2-ylcarbonyl)piperazin-1-yl)pyrrolidin-2-one] | 96% |
| CN1C(=O)Cc2cccc(-c3cccc(N4CC(N5CCN(C(=O)c6nccs6)CC5)CC4=O)c3)c21 (centres unmarked) [Example 229, 1-methyl-7-(3-(2-oxo-4-(4-(1,3-thiazol-2-ylcarbonyl)piperazin-1-yl)pyrrolidin-1-yl)phenyl)-1,3-dihydro-2H-indol-2-one] | 100% |
| CN1C(=O)Cc2c(-c3cccc(N4CC(N5CCN(C(=O)c6nccs6)CC5)CC4=O)c3)cccc21 (centres unmarked) [Example 230, 1-methyl-4-(3-(2-oxo-4-(4-(1,3-thiazol-2-ylcarbonyl)piperazin-1-yl)pyrrolidin-1-yl)phenyl)-1,3-dihydro-2H-indol-2-one] | 101% |
| CC1(C)C(=O)Nc2cccc(-c3cccc(N4CC(N5CCN(C(=O)c6nccs6)CC5)CC4=O)c3)c21 (centres unmarked) [Example 231, 3,3-dimethyl-4-(3-(2-oxo-4-(4-(1,3-thiazol-2-ylcarbonyl)piperazin-1-yl)pyrrolidin-1-yl)phenyl)-1,3-dihydro-2H-indol-2-one] | 100% |
| O=C(c1cscn1)N1CCN(C2CC(=O)N(c3cccc(-c4ccccc4Cl)c3)C2)CC1 (stereo not drawn) [Example 232, 1-(2′-Chlorobiphenyl-3-yl)-4-(4-(1,3-thiazol-4-ylcarbonyl)piperazin-1-yl)pyrrolidin-2-one (optical isomer)] | 99% |
| Cc1cc(-c2ccccc2)cc(N2CC(N3CCN(C(=O)c4nccs4)CC3)CC2=O)c1 (centres unmarked) [Example 240, 1-(5-methylbiphenyl-3-yl)-4-(4-(1,3-thiazol-2-ylcarbonyl)piperazin-1-yl)pyrrolidin-2-one] | 99% |
| O=C(c1nccs1)N1CCN(C2CC(=O)N(c3cc(-c4ccccc4)ccc3F)C2)CC1 (centres unmarked) [Example 241, 1-(4-fluorobiphenyl-3-yl)-4-(4-(1,3-thiazol-2-ylcarbonyl)piperazin-1-yl)pyrrolidin-2-one] | 96% |
| O=C(c1nccs1)N1CCN(C2CC(=O)N(c3cc(F)cc(-c4ccccc4)c3)C2)CC1 (centres unmarked) [Example 242, 1-(5-fluorobiphenyl-3-yl)-4-(4-(1,3-thiazol-2-ylcarbonyl)piperazin-1-yl)pyrrolidin-2-one] | 99% |
| O=C(c1nccs1)N1CCN(C2CC(=O)N(c3cccc(-c4ccccc4)c3F)C2)CC1 (centres unmarked) [Example 244, 1-(2-fluorobiphenyl-3-yl)-4-(4-(1,3-thiazol-2-ylcarbonyl)piperazin-1-yl)pyrrolidin-2-one] | 98% |
| O=C(c1nccs1)N1CCN([C@@H]2CC(=O)N(c3ccc4c(ccn4-c4cnc(C(F)(F)F)cn4)c3)C2)CC1 [Example 245, (4R)-4-(4-(1,3-thiazol-2-ylcarbonyl)piperazin-1-yl)-1-(1-(5-(trifluoromethyl)pyrazin-2-yl)-1H-indol-5-yl)pyrrolidin-2-one] | 98% |
| Cc1c(-c2ccccc2)cccc1N1CC(N2CCN(C(=O)c3nccs3)CC2)CC1=O (centres unmarked) [Example 249, 1-(2-methylbiphenyl-3-yl)-4-(4-(1,3-thiazol-2-ylcarbonyl)piperazin-1-yl)pyrrolidin-2-one] | 96% |
| O=C1CC(N2CCN(c3ncccn3)CC2)CN1c1cccc(I)c1 (centres unmarked) [Example 254, 1-(3-iodophenyl)-4-(4-(pyrimidin-2-yl)piperazin-1-yl)pyrrolidin-2-one] | 95% |
| Cc1ncccc1-c1cccc(N2CC(N3CCN(c4ncccn4)CC3)CC2=O)c1 (centres unmarked) [Example 256, 1-(3-(2-Methylpyridin-3-yl)phenyl)-4-(4-(pyrimidin-2-yl)piperazin-1-yl)pyrrolidin-2-one] | 102% |
| Cc1nc(C)c(-c2cccc(N3CC(N4CCN(C(=O)c5nccs5)CC4)CC3=O)c2)s1 (stereo not drawn) [Example 258, 1-(3-(2,4-dimethyl-1,3-thiazol-5-yl)phenyl)-4-(4-(1,3-thiazol-2-ylcarbonyl)piperazin-1-yl)pyrrolidin-2-one(optical isomer)] | 102% |
| O=C(c1nccs1)N1CCN(C2CN(c3ccc(Oc4ccccc4)cc3)C(=O)C2O)CC1 (centres unmarked) [Example 260, 3-Hydroxy-1-(4-phenoxyphenyl)-4-(4-(1,3-thiazol-2-ylcarbonyl)piperazin-1-yl)pyrrolidin-2-one] | 84% |
| O=C(c1nccs1)N1CCN(C2CN(c3ccc(Oc4ccccc4)cc3)C(=O)C2F)CC1 (centres unmarked) [Example 261, 3-Fluoro-1-(4-phenoxyphenyl)-4-(4-(1,3-thiazol-2-ylcarbonyl)piperazin-1-yl)pyrrolidin-2-one] | 100% |
| Cc1cc(-c2ccc(N3CC(N4CCN(C(=O)c5nccs5)CC4)CC3=O)cc2)ccn1 (centres unmarked) [Example 264, 1-(4-(2-methylpyridin-4-yl)phenyl)-4-(4-(1,3-thiazol-2-ylcarbonyl)piperazin-1-yl)pyrrolidin-2-one] | 92% |
| Cc1ccc(-c2ccc(N3CC(N4CCN(C(=O)c5nccs5)CC4)CC3=O)cc2)cn1 (centres unmarked) [Example 265, 1-(4-(6-methylpyridin-3-yl)phenyl)-4-(4-(1,3-thiazol-2-ylcarbonyl)piperazin-1-yl)pyrrolidin-2-one] | 97% |

More lines, now with the values ahead:

| inhibition at 10 µM | Structure (SMILES) |
| --- | --- |
| 98% | O=C(c1nccs1)N1CCN([C@@H]2CC(=O)N(c3ccc4c(ccn4-c4ccc(C(F)(F)F)nn4)c3)C2)CC1 [Example 234, (4R)-4-(4-(1,3-thiazol-2-ylcarbonyl)piperazin-1-yl)-1-(1-(6-(trifluoromethyl)pyridazin-3-yl)-1H-indol-5-yl)pyrrolidin-2-one] |
| 100% | Cc1ccc(-n2ccc3cc(N4CC(N5CCN(C(=O)c6nccs6)CC5)CC4=O)ccc32)cc1 (centres unmarked) [Example 235, 1-(1-(4-methylphenyl)-1H-indol-5-yl)-4-(4-(1,3-thiazol-2-ylcarbonyl)piperazin-1-yl)pyrrolidin-2-one] |
| 100% | Cc1cccc(-n2ccc3cc(N4CC(N5CCN(C(=O)c6nccs6)CC5)CC4=O)ccc32)n1 (centres unmarked) [Example 238, 1-(1-(6-methylpyridin-2-yl)-1H-indol-5-yl)-4-(4-(1,3-thiazol-2-ylcarbonyl)piperazin-1-yl)pyrrolidin-2-one] |
| 100% | Cc1ccc(-n2ccc3cc(N4CC(N5CCN(C(=O)c6nccs6)CC5)CC4=O)ccc32)nc1 (centres unmarked) [Example 239, 1-(1-(5-methylpyridin-2-yl)-1H-indol-5-yl)-4-(4-(1,3-thiazol-2-ylcarbonyl)piperazin-1-yl)pyrrolidin-2-one] |
| 100% | O=C(c1nccs1)N1CCN(C2CC(=O)N(c3ccc(F)c(-c4ccccc4)c3)C2)CC1 (centres unmarked) [Example 243, 1-(6-fluorobiphenyl-3-yl)-4-(4-(1,3-thiazol-2-ylcarbonyl)piperazin-1-yl)pyrrolidin-2-one] |
| 98% | O=C(c1nccs1)N1CCN([C@@H]2CC(=O)N(c3ccc4c(ccn4-c4ccnc(C(F)(F)F)c4)c3)C2)CC1 [Example 246, (4R)-4-(4-(1,3-thiazol-2-ylcarbonyl)piperazin-1-yl)-1-(1-(2-(trifluoromethyl)pyridin-4-yl)-1H-indol-5-yl)pyrrolidin-2-one] |
| 99% | Cc1ccc(-c2ccccc2)cc1N1CC(N2CCN(C(=O)c3nccs3)CC2)CC1=O (centres unmarked) [Example 247, 1-(4-methylbiphenyl-3-yl)-4-(4-(1,3-thiazol-2-ylcarbonyl)piperazin-1-yl)pyrrolidin-2-one] |
| 103% | Cc1ccc(N2CC(N3CCN(C(=O)c4nccs4)CC3)CC2=O)cc1-c1ccccc1 (centres unmarked) [Example 248, 1-(6-methylbiphenyl-3-yl)-4-(4-(1,3-thiazol-2-ylcarbonyl)piperazin-1-yl)pyrrolidin-2-one] |
| 101% | O=C(c1nccs1)N1CCN(C2CC(=O)N(c3ccc4c(ccn4-c4ccccc4)c3)C2)CC1 (centres unmarked) [Example 250, 1-(1-phenyl-1H-indol-5-yl)-4-(4-(1,3-thiazol-2-ylcarbonyl)piperazin-1-yl)pyrrolidin-2-one] |
| 102% | Cc1cccc(-n2ccc3cc(N4CC(N5CCN(C(=O)c6nccs6)CC5)CC4=O)ccc32)c1 (centres unmarked) [Example 251, 1-(1-(3-methylphenyl)-1H-indol-5-yl)-4-(4-(1,3-thiazol-2-ylcarbonyl)piperazin-1-yl)pyrrolidin-2-one] |
| 103% | Cc1ccnc(-n2ccc3cc(N4CC(N5CCN(C(=O)c6nccs6)CC5)CC4=O)ccc32)c1 (centres unmarked) [Example 252, 1-(1-(4-methylpyridin-2-yl)-1H-indol-5-yl)-4-(4-(1,3-thiazol-2-ylcarbonyl)piperazin-1-yl)pyrrolidin-2-one] |
| 101% | Cc1ccccc1-n1ccc2cc(N3CC(N4CCN(C(=O)c5nccs5)CC4)CC3=O)ccc21 (centres unmarked) [Example 253, 1-(1-(2-methylphenyl)-1H-indol-5-yl)-4-(4-(1,3-thiazol-2-ylcarbonyl)piperazin-1-yl)pyrrolidin-2-one] |
| 101% | Cc1cc(-n2ccc3cc(N4CC(N5CCN(C(=O)c6nccs6)CC5)CC4=O)ccc32)ccn1 (centres unmarked) [Example 255, 1-(1-(2-methylpyridin-4-yl)-1H-indol-5-yl)-4-(4-(1,3-thiazol-2-ylcarbonyl)piperazin-1-yl)pyrrolidin-2-one] |
| 99% | O=C(c1nccs1)N1CCN([C@@H]2CC(=O)N(c3ccc4c(ccn4-c4ncc(C(F)(F)F)cn4)c3)C2)CC1 [Example 257, (4R)-4-(4-(1,3-Thiazol-2-ylcarbonyl)piperazin-1-yl)-1-(1-(5-(trifluoromethyl)pyrimidin-2-yl)-1H-indol-5-yl)pyrrolidin-2-one hydrochloride] |
